Assay results reported in BindingDB's records for doi:10.1016/j.bioorg.2015.09.004 (Universiti Teknologi Mara, 2015).

Each compound was assayed against Alpha-glucosidase MAL12 (Saccharomyces cerevisiae (strain ATCC 204508 / S288c), UniProt P53341) (assay: Baker's Yeast alpha-Glucosidase Inhibition Assay). Settings: pH 6.8; 37 °C.
Protocol: The enzyme inhibition was evaluated according to the method previously reported by Taha et al. with slight modification. Various concentration of test compounds (10 uL) were dissolved in DMSO (ranging from 200 to 6.25 ug/mL) and premixed with 95 uL of 50 mM phosphate buffer (pH 6.8). Then, 25 uL of enzyme (0.0625 U/mL) in phosphate buffer saline was added into each well and the plate was incubated at 37 °C for 10 min. Afterward, 25 uL of PNPG in phosphate buffer saline (5 mM) were added and pre-read of the plate was taken by using a microplate reader (Spectrostar Nano BMG Labtech, Germany). The reaction mixture was then incubated at 37 °C for 30 min and change in absorbance at 405 nm was monitored up to 30 min. For negative control, the test samples were replaced with 10 uL of DMSO and acarbose was used as positive control. All experiments were triplicated and the results were expressed as the mean +/- S.E.M of three determinations.

Alpha-glucosidase MAL12, sequence (P53341 whole entry): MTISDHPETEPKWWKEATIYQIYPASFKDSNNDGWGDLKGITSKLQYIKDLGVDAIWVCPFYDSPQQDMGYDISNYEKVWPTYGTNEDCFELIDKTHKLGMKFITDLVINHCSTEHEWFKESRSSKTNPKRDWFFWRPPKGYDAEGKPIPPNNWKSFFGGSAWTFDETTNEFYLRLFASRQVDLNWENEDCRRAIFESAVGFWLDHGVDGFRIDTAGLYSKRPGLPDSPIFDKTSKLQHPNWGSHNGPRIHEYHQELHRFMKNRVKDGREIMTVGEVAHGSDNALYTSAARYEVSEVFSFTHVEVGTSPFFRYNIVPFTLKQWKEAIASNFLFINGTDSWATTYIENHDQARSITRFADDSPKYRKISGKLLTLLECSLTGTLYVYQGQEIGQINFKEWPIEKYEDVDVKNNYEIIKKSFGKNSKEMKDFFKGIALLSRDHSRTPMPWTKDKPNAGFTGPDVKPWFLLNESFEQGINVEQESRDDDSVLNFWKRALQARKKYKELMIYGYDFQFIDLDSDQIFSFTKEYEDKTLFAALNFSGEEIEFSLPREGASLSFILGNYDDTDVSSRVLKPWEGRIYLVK

| SMILES | IC50 |
| --- | --- |
| O=c1oc2ccccc2c(O)c1C(c1ccc(NC(=S)Nc2ccccc2Br)cc1)c1c(O)c2ccccc2oc1=O [1-(4-(bis(4-Hydroxy-2-oxo-2H-chromen-3-yl)methyl)phenyl)-3-(2-bromophenyl)-thiourea (1)] | 37.4 µM |
| O=c1oc2ccccc2c(O)c1C(c1ccc(NC(=S)Nc2ccccc2F)cc1)c1c(O)c2ccccc2oc1=O [1-(4-(bis(4-Hydroxy-2-oxo-2H-chromen-3-yl)methyl)phenyl)-3-(2-fluorophenyl)-thiourea (7)] | 91.3 µM |
| O=c1oc2ccccc2c(O)c1C(c1ccc(NC(=S)Nc2cccc(Br)c2)cc1)c1c(O)c2ccccc2oc1=O [1-(4-(bis(4-Hydroxy-2-oxo-2H-chromen-3-yl)methyl)phenyl)-3-(3-bromophenyl)-thiourea (2)] | 35.9 µM |
| O=c1oc2ccccc2c(O)c1C(c1ccc(NC(=S)Nc2cccc(F)c2)cc1)c1c(O)c2ccccc2oc1=O [1-(4-(bis(4-Hydroxy-2-oxo-2H-chromen-3-yl)methyl)phenyl)-3-(3-fluorophenyl)-thiourea (8)] | 55.1 µM |
| O=c1oc2ccccc2c(O)c1C(c1ccc(NC(=S)Nc2cccc([N+](=O)[O-])c2)cc1)c1c(O)c2ccccc2oc1=O [1-(4-(bis(4-Hydroxy-2-oxo-2H-chromen-3-yl)methyl)phenyl)-3-(3-nitrophenyl)-thiourea (17)] | 51 µM |
| O=c1oc2ccccc2c(O)c1C(c1ccc(NC(=S)Nc2ccc(Br)cc2)cc1)c1c(O)c2ccccc2oc1=O [1-(4-(bis(4-Hydroxy-2-oxo-2H-chromen-3-yl)methyl)phenyl)-3-(4-bromophenyl)-thiourea (3)] | 39 µM |
| O=c1oc2ccccc2c(O)c1C(c1ccc(NC(=S)Nc2ccc(F)cc2)cc1)c1c(O)c2ccccc2oc1=O [1-(4-(bis(4-Hydroxy-2-oxo-2H-chromen-3-yl)methyl)phenyl)-3-(4-fluorophenyl)-thiourea (9)] | 53.4 µM |
| O=c1oc2ccccc2c(O)c1C(c1ccc(NC(=S)Nc2ccc([N+](=O)[O-])cc2)cc1)c1c(O)c2ccccc2oc1=O [1-(4-(bis(4-Hydroxy-2-oxo-2H-chromen-3-yl)methyl)phenyl)-3-(4-nitrophenyl) thiourea (18)] | 24.7 µM |
